The record followed here is ChEMBL document CHEMBL1201862, “PubChem BioAssay data set” (2004).

Holding throughout (test): NCI anticancer screen, dose series, 48 h
Test [1] concerns HOP-18.
The test system of test [2] is DLD-1.
For test [3], the system named is DMS-273.
The test system of test [4] is RXF 631.
For test [5], the system named is KM-20L2.
Test [6] has as its system M19-MEL.
Test [7] deals with LXFL 529.
Test [8] concerns XF498.
The test system of test [9] is MCF7.

SMILES strings stand for the structures.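 A five-concentration, 48-hour dose response in 96-well plates underlies each endpoint, interpolated linearly between surrounding concentrations. The concentration for 50% growth inhibition is given as GI50.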 Active and inactive are the calls of the source. No stated cut-off is given here; in the data, active = GI50 up to about 1.1 µM and inactive = higher. A value given as a limit tells only on which side of the number the result lay.

As to `COc1cc(/C=C/C(=O)c2sc(-n3nc(-c4ccccc4)cc3-c3ccccc3)nc2C)ccc1O`, the GI50 in test [1] was 26.5 µM (inactive); in [2], > 100 µM (inactive); in [3], > 100 µM (inactive); in test [4], > 100 µM (inactive); in [5] it was > 100 µM (inactive); in test [6], > 100 µM (inactive).
`O=C1/C(=C/c2ccc(Cl)cc2)CCC1CCN1CCOCC1` (centres undefined): the GI50 was 56.4 µM (inactive) in [7]; > 100 µM (inactive) in [1]; 61 µM (inactive) in test [2]; 56.6 µM (inactive) in test [8]; 57 µM (inactive) in test [3]; 46.6 µM (inactive) in test [4]. Further, the results for the GI50 in test [5] and in test [6] were 43.8 µM (inactive) and 72.9 µM (inactive), respectively.
Take `COc1ccc2c(c1)c(Cc1c(C)n(C)c3ccc(OC)cc13)c(C)n2C`: the GI50 in test [7], in test [1], in [2], in [8], in test [3] and in test [5] was > 100 µM (inactive) in each case. The GI50 in test [6] is > 100 µM (inactive).
With `Cc1cc(=O)cc2sc3c(C)cccc3nc1-2`, the GI50 in test [7] was 12.2 µM (inactive); in [1], 41.9 µM (inactive); in test [2], 22.1 µM (inactive); in test [3], 83.6 µM (inactive); in [4], > 100 µM (inactive); in [6], 19.5 µM (inactive).
Turning to `Cc1ccc(S(=O)(=O)N2CCN(C=S)CC2)cc1`, the GI50 in test [7], in test [1], in test [2], in test [3], in test [4] and in test [5] was > 100 µM (inactive) in each case. Besides, the GI50 in test [6] is > 100 µM (inactive).
For `CC1=C(O)C(=O)C2C(=O)C1C(C)C2c1ccc(Cl)cc1` (centres undefined), the GI50 in [7], in test [2], in test [8], in test [3], in test [4] and in test [6] was > 100 µM (inactive) each time.
With `COc1ccc(/C(Cl)=C(\C=O)c2ccc([N+](=O)[O-])cc2)cc1`, the GI50 in [7] was 3.27 µM (inactive); in test [1], 34.9 µM (inactive); in [2], 16.7 µM (inactive); in test [8], 14.8 µM (inactive); in test [3], 20 µM (inactive); in test [4], 24.2 µM (inactive). Moreover, the GI50 in test [5] was 15 µM (inactive).
For `CCCC/C=C1\CCC(CN2CCCCC2)C1=O` (centres undefined), the GI50 in test [7] is 1.7 µM (inactive); in test [1], 8.73 µM (inactive); in test [2], 1.76 µM (inactive); in [9], > 100 µM (inactive); in [8] it was 2.3 µM (inactive); in test [4] it was 8.11 µM (inactive). The GI50 in [5] is 15.2 µM (inactive); in test [6], 8.36 µM (inactive).
In the case of `S=C1SCC2CCCN12` (centres undefined), the GI50 in test [7], in test [1], in test [2], in test [3], in test [4] and in test [5] was > 100 µM (inactive) in each case. In addition, the GI50 in test [6] was > 100 µM (inactive).
Consider `CN1C(=O)C2C=CC1C1CCC2N(C)C1=O` (centres undefined), for which the GI50 in test [7], in test [1], in [2], in [3], in test [4] and in test [6] was > 100 µM (inactive) each time.
For `CN1CCc2c1nc(-c1ccc(Cl)cc1)c1c2N(C)CC1`, the GI50 in test [7] was 20.1 µM (inactive); in test [1], < 0.01 µM (active); in [2], 7.66 µM (inactive); in test [8], 10.1 µM (inactive); in test [3], 14 µM (inactive); in test [5], 0.514 µM (active). Further, the GI50 in test [6] was 9.14 µM (inactive).
As to `CC[C@@H](C)[C@@H]1NC(=O)C(C(C)=O)=C1O`, the GI50 is 20.7 µM (inactive) in test [7]; 12.9 µM (inactive) in test [1]; 20.9 µM (inactive) in [2]; 80.9 µM (inactive) in test [8]; 24.4 µM (inactive) in test [3]; 15.1 µM (inactive) in [4]. Also, the GI50 is 23.2 µM (inactive) in [5] and 11.9 µM (inactive) in [6].
Consider `Cn1c(=O)cc2[nH]c3ccccc3n2c1=O`, for which the GI50 in test [7] is 42.8 µM (inactive); in test [1], 61.7 µM (inactive); in [2] it was 40.2 µM (inactive); in test [3], 25.5 µM (inactive); in [4], 29.6 µM (inactive); in test [5] it was 77.4 µM (inactive). Further, the GI50 in [6] was 33.7 µM (inactive).
Turning to `NC1CCC[C@H]1O` (some centres undefined), the GI50 in test [1], in test [2], in [8], in [3], in test [4] and in test [5] was > 100 µM (inactive) each time. The GI50 in [6] was > 100 µM (inactive).
In the case of `COC(=O)[C@@]1(C(C)CC(=O)O)CCCCC1=O` (some centres undefined), the GI50 in [7] was > 100 µM (inactive); in test [1], > 100 µM (inactive); in [2], > 100 µM (inactive); in test [8], > 100 µM (inactive); in test [3], 19.9 µM (inactive); in test [5], > 100 µM (inactive). Moreover, the GI50 in test [6] was > 100 µM (inactive).
As for `CC(C)(C)OC(=O)C#CC[C@H]1CCCC1/C=C/C(O)=C1/C(=O)NC(CCCNC(=O)OC(C)(C)C)C1=O` (some centres undefined), the GI50 in test [7] is 21.8 µM (inactive); in test [1] it was 25.7 µM (inactive); in test [2], 53 µM (inactive); in test [3] it was 26.1 µM (inactive); in [4], 19.4 µM (inactive); in [5], 25.1 µM (inactive). For the same compound, the GI50 in test [6] was 25.9 µM (inactive).
Take `Cn1cnc([N+](=O)[O-])c1Sc1nc2ccccc2o1`: the GI50 in test [7] is 3.08 µM (inactive); in test [1], 0.389 µM (active); in test [2], 4.13 µM (inactive); in test [8] it was 6.44 µM (inactive); in test [3], 3.01 µM (inactive); in [4], 4.05 µM (inactive). Moreover, the values for the GI50 in test [5] and in test [6] were 4.66 µM (inactive) and 8.43 µM (inactive), respectively.
